Source: publication PMC4423513, “Function of glutathione peroxidases in legume root nodules” (Journal of Experimental Botany, 2015)

Key:
LjGpx3 = experiment: NADPH oxidation at […] nm, thioredoxin-coupled, steady state; assay type: biochemical, Lotus japonicus; conditions: apparent Km, 20 μM poplar Trxh1, 1 μM A. thaliana NADPH-Trx reductase, 0.4 mM NADPH, 30 mM Tris-HCl pH 8.0, 1 mM EDTA
LjGpx1 = target: T1, LjGpx1 (Lotus japonicus, UniProt Q56VU1); experiment: as above; assay type: biochemical; conditions: apparent Km; 20 μM poplar Trxh1, 1 μM A. thaliana NADPH-Trx reductase, 0.4 mM NADPH, 30 mM Tris-HCl pH 8.0, 1 mM EDTA; acyl chains of lipid not defined
T1 sequence (Q56VU1 72-236): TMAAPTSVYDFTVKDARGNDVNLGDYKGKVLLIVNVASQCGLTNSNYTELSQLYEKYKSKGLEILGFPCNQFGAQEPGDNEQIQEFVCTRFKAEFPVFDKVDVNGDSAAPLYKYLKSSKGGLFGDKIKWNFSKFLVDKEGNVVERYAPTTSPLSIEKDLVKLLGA

Row | Km (LjGpx1) | Km (LjGpx3; acyl chains of lipid not defined) | Molecule | Km (LjGpx3)
1 |  |  | CC(C)(OO)c1ccccc1 [Cumene hydroperoxide] | 214 µM
2 |  |  | CC(C)(C)OO [t-Butyl hydroperoxide] | 167 µM
3 | 1.6 µM | 1.6 µM | Phosphatidylcholine hydroperoxide | 
